Test results: US9409908B2 (priority 2012, dated 2016)
Where a name gives a salt, the structure may show the parent alone.

Key:
[1] = molecular target: purified human plasma kallikrein (Homo sapiens (Human), UniProt P03952); test: biochemical; format: biochemical; conditions: read-out: Plasma Kallikrein Ki
[2] = molecular target: purified human Factor XIa (Homo sapiens (Human), UniProt P03951); test: biochemical; format: biochemical; conditions: read-out: Factor XIa Ki
purified human Factor XIa, sequence (P03951 whole entry, looked up): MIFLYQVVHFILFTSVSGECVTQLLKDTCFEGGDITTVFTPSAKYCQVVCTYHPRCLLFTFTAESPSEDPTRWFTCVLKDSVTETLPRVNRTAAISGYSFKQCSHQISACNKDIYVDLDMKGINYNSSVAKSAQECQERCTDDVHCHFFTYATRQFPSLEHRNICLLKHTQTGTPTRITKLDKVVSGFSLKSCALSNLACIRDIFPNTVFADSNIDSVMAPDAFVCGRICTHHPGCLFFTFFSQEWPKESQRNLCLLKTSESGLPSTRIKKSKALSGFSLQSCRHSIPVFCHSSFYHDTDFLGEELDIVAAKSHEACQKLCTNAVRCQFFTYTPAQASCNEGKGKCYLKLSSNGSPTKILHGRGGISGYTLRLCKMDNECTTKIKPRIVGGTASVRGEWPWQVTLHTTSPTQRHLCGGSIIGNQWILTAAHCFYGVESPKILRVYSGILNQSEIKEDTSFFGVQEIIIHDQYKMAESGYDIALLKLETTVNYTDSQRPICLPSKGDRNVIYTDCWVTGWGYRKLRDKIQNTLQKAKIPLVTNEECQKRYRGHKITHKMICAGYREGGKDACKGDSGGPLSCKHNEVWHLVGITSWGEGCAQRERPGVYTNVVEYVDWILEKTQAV
purified human Factor XIa, sequence (P03951 whole entry partner, looked up): as the sequence (P03951 whole entry, looked up) above

purified human plasma kallikrein, sequence (P03952 whole entry, looked up): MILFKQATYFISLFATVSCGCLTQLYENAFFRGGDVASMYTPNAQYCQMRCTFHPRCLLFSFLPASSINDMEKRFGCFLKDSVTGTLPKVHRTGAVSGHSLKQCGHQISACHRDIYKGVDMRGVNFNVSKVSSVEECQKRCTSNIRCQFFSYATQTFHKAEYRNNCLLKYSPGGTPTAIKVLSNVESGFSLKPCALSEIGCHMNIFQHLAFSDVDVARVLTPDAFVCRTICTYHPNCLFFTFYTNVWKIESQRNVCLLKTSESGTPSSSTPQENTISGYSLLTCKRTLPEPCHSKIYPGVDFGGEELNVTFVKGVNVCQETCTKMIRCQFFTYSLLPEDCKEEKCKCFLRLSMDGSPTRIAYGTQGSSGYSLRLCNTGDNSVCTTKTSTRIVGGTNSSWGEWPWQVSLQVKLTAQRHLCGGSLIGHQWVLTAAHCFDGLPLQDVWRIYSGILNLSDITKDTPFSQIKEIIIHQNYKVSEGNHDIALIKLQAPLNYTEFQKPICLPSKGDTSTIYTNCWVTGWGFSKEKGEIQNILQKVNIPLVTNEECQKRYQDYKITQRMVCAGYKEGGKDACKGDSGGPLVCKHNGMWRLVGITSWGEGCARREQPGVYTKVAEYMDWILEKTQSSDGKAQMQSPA
purified human plasma kallikrein, sequence (P03952 whole entry partner, looked up): as the sequence (P03952 whole entry, looked up) above

Structure (SMILES)	Ki [1] [nM]	Ki [2] [nM]
COC(=O)Nc1ccc2c(c1)NC(=O)[C@H](C)CCC[C@H](N1CCC(c3c(F)ccc(C)c3F)=CC1=O)c1cc-2ccn1 [Example 111, Methyl N-[(10R,14S)-14-[4-(2,6-difluoro-3-methylphenyl)-6-oxo-1,2,3,6-tetrahydropyridin-1-yl]-10-methyl-9-oxo-8,16-diazatricyclo[13.3.1.0^2,7]nonadeca-1(18),2,4,6,15(19),16-hexaen-5-yl]carbamate]	3.25	1.42
COC(=O)Nc1ccc2c(c1)NC(=O)[C@H](C)CCC[C@H](N1CCC(c3cc(C)ccc3F)=CC1=O)c1cc-2ccn1 [Example 113, Methyl N-[(10R,14S)-14-[4-(2-fluoro-5-methylphenyl)-6-oxo-1,2,3,6-tetrahydropyridin-1-yl]-10-methyl-9-oxo-8,16-diazatricyclo[13.3.1.0^2,7]nonadeca-1(18),2,4,6,15(19),16-hexaen-5-yl]carbamate]	15.6	7.24
COC(=O)Nc1ccc2c(c1)NC(=O)[C@H](C)CCC[C@H](N1CCC(c3cccc(C)c3C)=CC1=O)c1cc-2ccn1 [Example 114, Methyl-N-[(10R,14S)-14-[4-(2,3-dimethylphenyl)-6-oxo-1,2,3,6-tetrahydropyridin-1-yl]-10-methyl-9-oxo-8,16-diazatricyclo[13.3.1.0^2,7]nonadeca-1(18),2,4,6,15(19),16-hexaen-5-yl]carbamate]	143	108
COC(=O)Nc1ccc2c(c1)NC(=O)[C@H](C)CCC[C@H](N1CCC(c3ccccc3OC)=CC1=O)c1cc-2ccn1 [Example 116, Methyl N-[(10R,14S)-14-[4-(2-methoxyphenyl)-6-oxo-1,2,3,6-tetrahydropyridin-1-yl]-10-methyl-9-oxo-8,16-diazatricyclo[13.3.1.0^2,7]nonadeca-1(18),2,4,6,15(19),16-hexaen-5-yl]carbamate]	739	267
COC(=O)Nc1ccc2c(c1)NC(=O)[C@H](C)CCC[C@H](N1CCC(c3ccc(OC)cc3)=CC1=O)c1cc-2ccn1 [Example 117, Methyl N-[(10R,14S)-14-[4-(4-methoxyphenyl)-6-oxo-1,2,3,6-tetrahydropyridin-1-yl]-10-methyl-9-oxo-8,16-diazatricyclo[13.3.1.0^2,7]nonadeca-1(18),2,4,6,15(19),16-hexaen-5-yl]carbamate]	> 13000	> 398
COC(=O)Nc1ccc2c(c1)NC(=O)[C@H](C)CCC[C@H](N1CCC(c3cccc(Cl)c3OC)=CC1=O)c1cc-2ccn1 [Example 118, Methyl N-[(10R,14S)-14-[4-(3-chloro-2-methoxyphenyl)-6-oxo-1,2,3,6-tetrahydropyridin-1-yl]-10-methyl-9-oxo-8,16-diazatricyclo[13.3.1.0^2,7]nonadeca-1(18),2,4,6,15(19),16-hexaen-5-yl]carbamate]	2030	> 404
COC(=O)Nc1ccc2c(c1)NC(=O)C(C)(O)CCC[C@H](N1CCC(c3c(F)ccc(Cl)c3F)=CC1=O)c1cc-2ccn1 (stereo partly drawn) [Example 123, Methyl N-[(14S)-14-[4-(3-chloro-2,6-difluorophenyl)-6-oxo-1,2,3,6-tetrahydropyridin-1-yl]-10-hydroxy-10-methyl-9-oxo-8,16-diazatricyclo[13.3.1.0^2,7]nonadeca-1(19),2,4,6,15,17-hexaen-5-yl]carbamate, TFA salt]	26.1	20.1
C[C@@H]1CCC[C@H](N2CCC(c3c(F)ccc(Cl)c3F)=CC2=O)c2cc(ccn2)-c2ccc(NC3O[C@H](CO)[C@@H](O)[C@H](O)[C@@H]3O)cc2NC1=O (stereo partly drawn) [Example 125, (10R,14S)-14-[4-(3-chloro-2,6-difluorophenyl)-6-oxo-1,2,3,6-tetrahydropyridin-1-yl]-10-methyl-5-{[(3S,4S,5S,6R)-3,4,5-trihydroxy-6-(hydroxymethyl)oxan-2-yl]amino}-8,16-diazatricyclo[13.3.1.0^2,7]nonadeca-1(19),2,4,6,15,17-hexaen-9-one]	11.6	15.2
C[C@@H]1CCC[C@H](N2CCC(c3c(F)ccc(Cl)c3F)=CC2=O)c2cc(ccn2)-c2ccc(NC3O[C@H](CO)[C@@H](O)[C@H](O)[C@H]3O)cc2NC1=O (stereo partly drawn) [Example 126, (10R,14S)-14-[4-(3-chloro-2,6-difluorophenyl)-6-oxo-1,2,3,6-tetrahydropyridin-1-yl]-10-methyl-5-{[(3R,4S,5S,6R)-3,4,5-trihydroxy-6-(hydroxymethyl)oxan-2-yl]amino}-8,16-diazatricyclo[13.3.1.0^2,7]nonadeca-1(19),2,4,6,15,17-hexaen-9-one]	37.6	16.1
C[C@@H]1CCC[C@H](N2CCC(c3c(F)ccc(Cl)c3F)=CC2=O)c2cc(ccn2)-c2ccc(NC3O[C@H](C(=O)O)[C@@H](O)[C@H](O)[C@H]3O)cc2NC1=O (stereo partly drawn) [Example 128, (2S,3S,4S,5R)-6-{[(10R,14S)-14-[4-(3-chloro-2,6-difluorophenyl)-6-oxo-1,2,3,6-tetrahydropyridin-1-yl]-10-methyl-9-oxo-8,16-diazatricyclo[13.3.1.0^2,7]nonadeca-1(19),2,4,6,15,17-hexaen-5-yl]amino}-3,4,5-trihydroxyoxane-2-carboxylic acid]	25.5	10.3
CO[C@H]1[C@H](O)[C@@H](CO)OC(Nc2ccc3c(c2)NC(=O)[C@H](C)CCC[C@H](N2CCC(c4c(F)ccc(Cl)c4F)=CC2=O)c2cc-3ccn2)[C@@H]1O (stereo partly drawn) [Example 129, (10R,14S)-14-[4-(3-chloro-2,6-difluorophenyl)-6-oxo-1,2,3,6-tetrahydropyridin-1-yl]-5-{[(3R,4S,5R,6R)-3,5-dihydroxy-6-(hydroxymethyl)-4-methoxyoxan-2-yl]amino}-10-methyl-8,16-diazatricyclo[13.3.1.0^2,7]nonadeca-1(19),2,4,6,15,17-hexaen-9-one]	21.7	8.29
CC(=O)N[C@@H]1C(Nc2ccc3c(c2)NC(=O)[C@H](C)CCC[C@H](N2CCC(c4c(F)ccc(Cl)c4F)=CC2=O)c2cc-3ccn2)O[C@H](CO)[C@@H](O)[C@@H]1O (stereo partly drawn) [Example 130, N-[(3S,4R,5S,6R)-2-{[(10R,14S)-14-[4-(3-chloro-2,6-difluorophenyl)-6-oxo-1,2,3,6-tetrahydropyridin-1-yl]-10-methyl-9-oxo-8,16-diazatricyclo[13.3.1.0^2,7]nonadeca-1(19),2,4,6,15,17-hexaen-5-yl]amino}-4,5-dihydroxy-6-(hydroxymethyl)oxan-3-yl]acetamide]	26.5	8.51
C[C@@H]1CCC[C@H](N2CCC(c3c(F)ccc(Cl)c3F)=CC2=O)c2cc(ccn2)-c2ccc(NC3O[C@@H](CO)[C@H](O)[C@@H](O)[C@@H]3O)cc2NC1=O (some centres unmarked) [Example 131]	20.8	7.22
C[C@@H]1CCC[C@H](N2CCC(c3c(F)ccc(Cl)c3F)=CC2=O)c2cc(ccn2)-c2ccc(NC3O[C@H](CO)[C@@H](O[C@H]4O[C@H](CO)[C@@H](O[C@H]5O[C@H](CO)[C@@H](O)[C@H](O)[C@H]5O)[C@H](O)[C@H]4O)[C@H](O)[C@H]3O)cc2NC1=O (stereo partly drawn) [Example 133, (10R,14S)-14-[4-(3-chloro-2,6-difluorophenyl)-6-oxo-1,2,3,6-tetrahydropyridin-1-yl]-5-{[(3R,4R,5S,6R)-5-{[(2R,3R,4R,5S,6R)-3,4-dihydroxy-6-(hydroxymethyl)-5-{[(2R,3R,4S,5S,6R)-3,4,5-trihydroxy-6-(hydroxymethyl)oxan-2-yl]oxy}oxan-2-yl]oxy}-3,4-dihydroxy-6-(hydroxymethyl)oxan-2-yl]amino}-10-methyl-8,16-diazatricyclo[13.3.1.0^2,7]nonadeca-1(19),2,4,6,15,17-hexaen-9-one]	12.6	4.77
COC(=O)Nc1ccc2c(c1)NC(=O)[C@H](C)CCC[C@H](N1CCC(c3c(F)ccc(Cl)c3F)=CC1=O)c1nc-2c(Cl)[nH]1 [Example 135, Methyl N-[(10R,14S)-17-chloro-14-[4-(3-chloro-2,6-difluorophenyl)-6-oxo-1,2,3,6-tetrahydropyridin-1-yl]-10-methyl-9-oxo-8,16,18-triazatricyclo[13.2.1.0^2,7]octadeca-1(17),2,4,6,15(18)-pentaen-5-yl]carbamate, TFA salt]	0.56	0.05
COC(=O)Nc1ccc2c(c1)NC(=O)[C@H](C)C(=O)CC[C@H](N1CCC(c3c(F)ccc(Cl)c3F)=CC1=O)c1cc-2ccn1 [Example 136, Methyl N-[(10R,14S)-14-[4-(3-chloro-2,6-difluorophenyl)-6-oxo-1,2,3,6-tetrahydropyridin-1-yl]-10-methyl-9,11-dioxo-8,16-diazatricyclo[13.3.1.0^2,7]nonadeca-1(19),2(7),3,5,15,17-hexaen-5-yl]carbamate]	118	45.3
C[C@@H]1CCC[C@H](N2CCC(c3c(F)ccc(Cl)c3F)=CC2=O)c2cc(ccn2)-c2cc(Br)ccc2NC1=O [Example 137, (10R,14S)-4-bromo-14-[4-(3-chloro-2,6-difluorophenyl)-6-oxo-1,2,3,6-tetrahydropyridin-1-yl]-10-methyl-8,16-diazatricyclo[13.3.1.0^2,7]nonadeca-1(19),2(7),3,5,15,17-hexaen-9-one]	91.3	69.6
C[C@@H]1CCC[C@H](N2CCC(c3c(F)ccc(Cl)c3F)=CC2=O)c2cc(ccn2)-c2cc(C#N)ccc2NC1=O [Example 138, (10R,14S)-14-[4-(3-chloro-2,6-difluorophenyl)-6-oxo-1,2,3,6-tetrahydropyridin-1-yl]-10-methyl-9-oxo-8,16-diazatricyclo[13.3.1.0^2,7]nonadeca-1(19),2(7),3,5,15,17-hexaene-4-carbonitrile]	31.7	36.2
C[C@@H]1CCC[C@H](N2CCC(c3c(F)ccc(C#N)c3F)=CC2=O)c2cc(ccn2)-c2cc(C#N)ccc2NC1=O [Example 139, (10R,14S)-14-[4-(3-cyano-2,6-difluorophenyl)-6-oxo-1,2,3,6-tetrahydropyridin-1-yl]-10-methyl-9-oxo-8,16-diazatricyclo[13.3.1.0^2,7]nonadeca-1(19),2(7),3,5,15,17-hexaene-4-carbonitrile]	6050	> 408
